Patent US11059824B2, “Substituted purines as TLR7 agonists” (Primmune Therapeutics, Inc., priority 2018, dated 2021)
“And” between values parts separate entries of the source, which are not always exact repeats. Identical values can stand only once. Marks after values point to notes of the source that are not given here.

Experiments:
[1] = Oral bioavailability in cynomolgus monkeys; type: in vivo; conditions: vs loxoribine administered orally as itself or as prodrugs
Protocol: From two to four male or female cynomolgus monkeys were used for animal testing studies. The study compounds were formulated in a vehicle (e.g. 50 mM Phosphate Buffered Saline, pH 7.4) appropriate for animal oral or intravenous administration. Parent compounds 1, 5, 26 and 27 were administered at 1 mg/kg by IV administration whereas prodrugs of the corresponding compounds were administered at 2 mg/kg. After dosing, 0.5 mL blood samples were collected typically at 0.083, 0.33, 1, 2, 4, 6, 8, 12 and 24 hours post-dosing (iv administration) or 0.25, 0.5, 1, 2, 4, 6, 8, 12 and 24 hours post-dosing (oral administration). Plasma was separated from blood and analyzed for the active agonists by well-known LC-MS techniques. […] Percent bioavailability (F %) of compounds when administered orally as prodrug was calculated from the ratio of dose-normalized AUC of parent from oral prodrug administration to that of dose-normalized parent AUC from IV parent administration and reported in Table 4.

[2] = biological target: human TLR7 (Homo sapiens (Human), UniProt Q9NYK1); test: TLR7 reporter assay (HEK293-TLR-NF-κB inducible SEAP reporter); type: cell-based; conditions: HEK293 cells stably expressing human TLR7 with NF-κB-driven SEAP reporter; 15-24 hours
Description: The engagement of TLRs by cognate ligands triggers downstream signaling cascades, leading to the activation of NF-κB and other transcription factors which initiate various immunomodulatory effects. The human embryonic kidney cell line, HEK293, is essentially non-responsive to TLR agonists, but ectopic expression of TLRs in these cells allows cognate agonists to activate endogenous NF-κB. Accordingly, the HEK293-TLR-NF-κB inducible reporter system is used to assay TLR agonists. HEK293 cell lines stably expressing human TLR7 or TLR8 together with an NF-κB-driven-secreted alkaline phosphatase (SEAP) reporter were invented at InvivoGen (San Diego, Calif., USA) and used to assess compounds of the present invention for TLR7 and TLR8 agonist activities. Cells were seeded at 2-5×10^4 cells/well in 96 well plates ([…]) and treated with various concentrations of compound (10 μl) for 15-24 hours. SEAP activity was determined by measuring OD at 650 nm; the media used to culture the cell lines contains the reagents required for SEAP detection. The EC50 values in Table 2 are calculated from fitting the dose response of measured SEAP activity for each compound to the following equation: Y=ymax*c^nh/(EC50^nh+c^nh)+blank where Y is the experimentally measured OD650 at concentration c of test article, blank is the observed OD650 in the absence of TLR7 agonist, ymax is the difference between the measured OD650 in the presence of either 28.5 μM resiquimod or 1.675 μM CL307 and the blank and values of EC50 and nh are determined by nonlinear least squares analysis.

[3] = test system: interferon-α production in hPBMCs; test: Induction of interferon-α production in hPBMCs; type: cell-based, human; conditions: interferon-α production from hPBMCs; for Weighted MEC: geometric mean of all individual MECs across all donors, 24 hours; for individual MEC values: per donor
Protocol: Treatment of hPBMCs with a TLR7 agonist typically induces substantial production of interferon-α as well as lesser amounts of a variety of other cytokines and chemokines. A typical experiment uses hPBMCs isolated from a healthy donor and placed in replicate cell culture wells; typically 1.0-7.5×10^6 cells are placed in each well. Test compound is added and the cells cultured for 24 hours at 37° C. in a humidified atmosphere containing 5% CO2 post-addition; untreated controls are included. Secreted interferon-α production is measured using an a multisubtype interferon-α ELISA kit like those from PBL Assay Sciences or specifically as IFNα2a as part of a panel of cytokines and chemokines using luminex methodologies. The minimal effective concentration (MEC) is the minimum concentration in a dose response curve where a significant increase in interferon-α production (generally at least 20 pg/ml) is observed above baseline. MEC values for each compound are determined for at least three donors. The weighted MEC for each compound is the geometric mean of all individual MECs across all donors. Concentrations tested typically consist of a two-fold dilution series starting at 100 μM. In the calculation of weighted MEC, any value >100 μM is arbitrarily set to 200 μM unless all MECs for a compound exceed 100 μM

Sequence of human TLR7 (Q9NYK1 27-1049): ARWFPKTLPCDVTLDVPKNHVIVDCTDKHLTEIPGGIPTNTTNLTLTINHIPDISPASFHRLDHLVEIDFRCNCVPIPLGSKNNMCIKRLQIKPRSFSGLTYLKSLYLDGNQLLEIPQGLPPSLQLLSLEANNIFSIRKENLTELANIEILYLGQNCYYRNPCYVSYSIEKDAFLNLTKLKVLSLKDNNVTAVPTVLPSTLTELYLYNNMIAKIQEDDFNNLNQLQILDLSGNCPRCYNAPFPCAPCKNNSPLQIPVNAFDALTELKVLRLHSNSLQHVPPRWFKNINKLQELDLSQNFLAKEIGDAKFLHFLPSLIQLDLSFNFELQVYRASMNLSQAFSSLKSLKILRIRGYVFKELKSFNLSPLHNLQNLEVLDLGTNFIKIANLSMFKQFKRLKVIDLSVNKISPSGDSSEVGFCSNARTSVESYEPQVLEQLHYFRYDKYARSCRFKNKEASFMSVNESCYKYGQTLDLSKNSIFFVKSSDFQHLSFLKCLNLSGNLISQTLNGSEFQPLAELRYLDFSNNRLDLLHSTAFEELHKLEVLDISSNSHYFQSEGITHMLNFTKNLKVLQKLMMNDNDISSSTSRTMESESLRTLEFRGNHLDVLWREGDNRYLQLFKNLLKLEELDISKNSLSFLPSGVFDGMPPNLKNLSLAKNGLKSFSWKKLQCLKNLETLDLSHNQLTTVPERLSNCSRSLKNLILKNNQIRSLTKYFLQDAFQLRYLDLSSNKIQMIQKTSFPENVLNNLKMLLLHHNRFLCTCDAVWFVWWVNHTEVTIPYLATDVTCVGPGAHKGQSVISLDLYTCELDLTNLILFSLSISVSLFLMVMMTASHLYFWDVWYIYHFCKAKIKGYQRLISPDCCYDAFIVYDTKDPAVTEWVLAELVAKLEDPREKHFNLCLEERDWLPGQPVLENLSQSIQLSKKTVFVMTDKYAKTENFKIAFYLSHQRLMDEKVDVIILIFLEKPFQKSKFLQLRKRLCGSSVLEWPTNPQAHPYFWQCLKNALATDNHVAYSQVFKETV

With `C#CCn1c(=O)n([C@@H]2O[C@H](CO)C[C@H]2O)c2nc(N)[nH]c(=O)c21` [Compound 26, 2-Amino-9-((2R,3R,5S)-3-hydroxy-5-(hydroxymethyl)tetrahydrofuran-2-yl)-7-(prop-2-yn-1-yl)-7,9-dihydro-1H-purine-6,8-dione] the “Systemic delivery by prodrugs compared with loxoribine” value [1] was “substantially greater than loxoribine”, the EC50 [2] was 519 µM and the “Weighted MEC” value [3] was “less than or equal to 40 μM and 31 μM”. The “individual MEC values” [3] was < 100 µM.

For `Nc1nc2c(c(=O)[nH]1)n(CC1CC1)c(=O)n2[C@@H]1O[C@H](CO)[C@H](O)[C@H]1O` [Compound 1, 2-Amino-7-(cyclopropylmethyl)-9-((2R,3R,4R,5R)-3,4-dihydroxy-5-(hydroxymethyl)tetrahydrofuran-2-yl)-7,9-dihydro-1H-purine-6,8-dione], the “Systemic delivery by prodrugs compared with loxoribine” value [1] was “substantially greater than loxoribine”, the EC50 [2] was 188 µM and the “Weighted MEC” value [3] was 66* μM.

In the case of `COC(=O)CCCn1c(=O)n([C@@H]2O[C@H](CO)[C@H](O)[C@H]2O)c2nc(N)[nH]c(=O)c21` [Compound 21, Methyl 4-(2-amino-9-((2R,3R,4R,5R)-3,4-dihydroxy-5-(hydroxymethyl)tetrahydrofuran-2-yl)-6,8-dioxo-1,6,8,9-tetrahydro-7H-purin-7-yl)butanoate], the EC50 [2] is reported as 520 µM and the “Weighted MEC” value [3] is reported as >100* μM.

With `CCCn1c(=O)n([C@@H]2O[C@H](CO)[C@H](O)[C@H]2O)c2nc(N)[nH]c(=O)c21` [Compound 17, 2-Amino-9-((2R,3R,4R,5R)-3,4-dihydroxy-5-(hydroxymethyl)tetrahydrofuran-2-yl)-7-propyl-7,9-dihydro-1H-purine-6,8-dione] the EC50 [2] was 337 µM and the “Weighted MEC” value [3] was 100* μM.

With `C=CCn1c(=O)n([C@@H]2O[C@H](CO)[C@H](O)[C@H]2O)c2nc(N)[nH]c(=O)c21` [Compound 2, 7-Allyl-2-amino-9-((2R,3R,4R,5R)-3,4-dihydroxy-5-(hydroxymethyl)tetrahydrofuran-2-yl)-7,9-dihydro-1H-purine-6,8-dione] the EC50 [2] was 298 µM and the “Weighted MEC” value [3] was 79 µM.

With `Nc1nc2c(c(=O)[nH]1)n(CCCCO)c(=O)n2[C@@H]1O[C@H](CO)[C@H](O)[C@H]1O` [Compound 19, 2-Amino-9-((2R,3R,4R,5R)-3,4-dihydroxy-5-(hydroxymethyl)tetrahydrofuran-2-yl)-7-(4-hydroxybutyl)-7,9-dihydro-1H-purine-6,8-dione] the EC50 [2] was 491 µM and the “Weighted MEC” value [3] was >100* μM.

For `Nc1nc2c(c(=O)[nH]1)n(Cc1ccc(C(F)(F)F)cc1)c(=O)n2[C@@H]1O[C@H](CO)C[C@H]1O` [Compound 35, 2-Amino-9-((2R,3R,5S)-3-hydroxy-5-(hydroxymethyl)tetrahydrofuran-2-yl)-7-(4-(trifluoromethyl)benzyl)-7,9-dihydro-1H-purine-6,8-dione], the EC50 [2] was 1160 µM and the “Weighted MEC” value [3] was 79* μM.

For `COC(=O)/C=C/Cn1c(=O)n([C@@H]2O[C@H](CO)[C@H](O)[C@H]2O)c2nc(N)[nH]c(=O)c21` [Compound 10, Methyl (E)-4-(2-amino-9-((2R,3R,4R,5R)-3,4-dihydroxy-5-(hydroxymethyl)tetrahydrofuran-2-yl)-6,8-dioxo-1,6,8,9-tetrahydro-7H-purin-7-yl)but-2-enoate], the EC50 [2] was 248 µM and the “Weighted MEC” value [3] was >100* μM.

With `CCCCn1c(=O)n([C@@H]2O[C@H](CO)C[C@H]2O)c2nc(N)[nH]c(=O)c21` [Compound 37, 2-Amino-7-butyl-9-((2R,3R,5S)-3-hydroxy-5-(hydroxymethyl)tetrahydrofuran-2-yl)-7,9-dihydro-1H-purine-6,8-dione] the EC50 [2] was 564 µM and the “Weighted MEC” value [3] was 50 µM.

For `Nc1nc2c(c(=O)[nH]1)n(CC(F)(F)F)c(=O)n2[C@@H]1O[C@H](CO)[C@H](O)[C@H]1O` [Compound 13, 2-Amino-9-((2R,3R,4R,5R)-3,4-dihydroxy-5-(hydroxymethyl)tetrahydrofuran-2-yl)-7-(2,2,2-trifluoroethyl)-7,9-dihydro-1H-purine-6,8-dione], the EC50 [2] was 151 µM and the “Weighted MEC” value [3] was 66* μM.

With `Nc1nc2c(c(=O)[nH]1)n(CC#CCO)c(=O)n2[C@@H]1O[C@H](CO)[C@H](O)[C@H]1O` [Compound 11, 2-Amino-9-((2R,3R,4R,5R)-3,4-dihydroxy-5-(hydroxymethyl)tetrahydrofuran-2-yl)-7-(4-hydroxybut-2-yn-1-yl)-7,9-dihydro-1H-purine-6,8-dione] the EC50 [2] was 249 µM and the “Weighted MEC” value [3] was 79 µM.

For `CC#CCn1c(=O)n([C@@H]2O[C@H](CO)[C@H](O)[C@H]2O)c2nc(N)[nH]c(=O)c21` [Compound 6, 2-Amino-7-(but-2-yn-1-yl)-9-((2R,3R,4R,5R)-3,4-dihydroxy-5-(hydroxymethyl)tetrahydrofuran-2-yl)-7,9-dihydro-1H-purine-6,8-dione], the EC50 [2] was 835 µM and the “Weighted MEC” value [3] was 79 µM.

For `Nc1nc2c(c(=O)[nH]1)n(Cc1ccccc1)c(=O)n2[C@@H]1O[C@H](CO)C[C@H]1O` [Compound 33, 2-Amino-7-benzyl-9-((2R,3R,5S)-3-hydroxy-5-(hydroxymethyl)tetrahydrofuran-2-yl)-7,9-dihydro-1H-purine-6,8-dione], the EC50 [2] was 688 µM and the “Weighted MEC” value [3] was 79* μM.

In the case of `CCCCn1c(=O)n([C@@H]2O[C@H](CO)[C@H](O)[C@H]2O)c2nc(N)[nH]c(=O)c21` [Compound 18, 2-Amino-7-butyl-9-((2R,3R,4R,5R)-3,4-dihydroxy-5-(hydroxymethyl)tetrahydrofuran-2-yl)-7,9-dihydro-1H-purine-6,8-dione], the EC50 [2] is reported as 330 µM, the “Weighted MEC” value [3] is reported as “less than or equal to 40 μM and 37 μM” and the “individual MEC values” [3] is reported as < 100 µM.

For `CCn1c(=O)n([C@@H]2O[C@H](CO)[C@H](O)[C@H]2O)c2nc(N)[nH]c(=O)c21` [Compound 16, 2-Amino-9-((2R,3R,4R,5R)-3,4-dihydroxy-5-(hydroxymethyl)tetrahydrofuran-2-yl)-7-ethyl-7,9-dihydro-1H-purine-6,8-dione], the EC50 [2] was 534 µM and the “Weighted MEC” value [3] was >100* μM.

With `C/C=C/Cn1c(=O)n([C@@H]2O[C@H](CO)[C@H](O)[C@H]2O)c2nc(N)[nH]c(=O)c21` [Compound 7, 2-Amino-7-((E)-but-2-en-1-yl)-9-((2R,3R,4R,5R)-3,4-dihydroxy-5-(hydroxymethyl)tetrahydrofuran-2-yl)-7,9-dihydro-1H-purine-6,8-dione] the EC50 [2] was 535 µM and the “Weighted MEC” value [3] was 63 µM.

With `C=CCn1c(=O)n([C@@H]2O[C@H](CO)C[C@H]2O)c2nc(N)[nH]c(=O)c21` [Compound 36, 7-Allyl-2-amino-9-((2R,3R,5S)-3-hydroxy-5-(hydroxymethyl)tetrahydrofuran-2-yl)-7,9-dihydro-1H-purine-6,8-dione] the EC50 [2] was 1210 µM and the “Weighted MEC” value [3] was 100 µM.

For `Nc1nc2c(c(=O)[nH]1)n(C/C=C/CO)c(=O)n2[C@@H]1O[C@H](CO)[C@H](O)[C@H]1O` [Compound 8, 2-Amino-9-((2R,3R,4R,5R)-3,4-dihydroxy-5-(hydroxymethyl)tetrahydrofuran-2-yl)-7-((E)-4-hydroxybut-2-en-1-yl)-7,9-dihydro-1H-purine-6,8-dione], the EC50 [2] was 413 µM and the “Weighted MEC” value [3] was >100* μM.
